Data published in patent publication US20260232670A1, “TYRO3 SELECTIVE INHIBITORS AND USES THEREOF” (THE UNIVERSITY OF NORTH CAROLINA AT CHAPEL HILL, priority 2023, published 2026).

Assays:
[1] = cited from earlier work
TYRO3 = molecular target: T1, TYRO3 (Homo sapiens, UniProt Q06418); test: Microfluidic capillary electrophoresis (MCE) kinase activity assay, Tyro3; format: biochemical
T1 sequence (Q06418 41-890): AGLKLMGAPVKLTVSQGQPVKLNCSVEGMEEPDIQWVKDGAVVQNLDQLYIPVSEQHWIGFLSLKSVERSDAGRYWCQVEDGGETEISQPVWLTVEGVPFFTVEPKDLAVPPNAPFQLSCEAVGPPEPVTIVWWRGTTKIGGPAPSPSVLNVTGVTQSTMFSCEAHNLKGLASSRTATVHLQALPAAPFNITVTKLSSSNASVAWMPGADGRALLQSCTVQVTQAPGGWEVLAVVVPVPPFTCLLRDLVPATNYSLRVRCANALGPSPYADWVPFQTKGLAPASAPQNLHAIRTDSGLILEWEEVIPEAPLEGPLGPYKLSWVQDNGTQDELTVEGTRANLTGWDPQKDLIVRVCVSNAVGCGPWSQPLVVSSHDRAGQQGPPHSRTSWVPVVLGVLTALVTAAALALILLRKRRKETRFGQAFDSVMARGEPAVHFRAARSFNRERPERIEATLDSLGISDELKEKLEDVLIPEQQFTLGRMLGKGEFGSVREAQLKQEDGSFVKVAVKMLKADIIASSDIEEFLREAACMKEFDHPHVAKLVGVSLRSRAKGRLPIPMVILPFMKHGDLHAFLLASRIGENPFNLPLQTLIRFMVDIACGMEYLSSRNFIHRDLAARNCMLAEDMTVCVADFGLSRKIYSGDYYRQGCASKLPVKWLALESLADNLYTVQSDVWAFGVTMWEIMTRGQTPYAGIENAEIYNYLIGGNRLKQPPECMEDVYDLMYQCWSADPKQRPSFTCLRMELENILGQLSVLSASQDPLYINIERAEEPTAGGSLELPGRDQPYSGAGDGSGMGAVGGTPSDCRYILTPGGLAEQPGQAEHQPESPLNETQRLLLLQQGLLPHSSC
Method: (§1) All reactions were terminated by addition of 20 μL of 70 mM EDTA. After a 180 min incubation, phosphorylated and unphosphorylated substrate peptides (Table 6) were separated in buffer supplemented with 1× CR-8 on a LabChip EZ Reader equipped with a 12-sipper chip. Data were analyzed using EZ Reader software.

MERTK = molecular target: T2, MERTK (Homo sapiens, UniProt Q12866); test: Microfluidic capillary electrophoresis (MCE) kinase activity assay, Mer; format: biochemical
T2 sequence (Q12866 21-999): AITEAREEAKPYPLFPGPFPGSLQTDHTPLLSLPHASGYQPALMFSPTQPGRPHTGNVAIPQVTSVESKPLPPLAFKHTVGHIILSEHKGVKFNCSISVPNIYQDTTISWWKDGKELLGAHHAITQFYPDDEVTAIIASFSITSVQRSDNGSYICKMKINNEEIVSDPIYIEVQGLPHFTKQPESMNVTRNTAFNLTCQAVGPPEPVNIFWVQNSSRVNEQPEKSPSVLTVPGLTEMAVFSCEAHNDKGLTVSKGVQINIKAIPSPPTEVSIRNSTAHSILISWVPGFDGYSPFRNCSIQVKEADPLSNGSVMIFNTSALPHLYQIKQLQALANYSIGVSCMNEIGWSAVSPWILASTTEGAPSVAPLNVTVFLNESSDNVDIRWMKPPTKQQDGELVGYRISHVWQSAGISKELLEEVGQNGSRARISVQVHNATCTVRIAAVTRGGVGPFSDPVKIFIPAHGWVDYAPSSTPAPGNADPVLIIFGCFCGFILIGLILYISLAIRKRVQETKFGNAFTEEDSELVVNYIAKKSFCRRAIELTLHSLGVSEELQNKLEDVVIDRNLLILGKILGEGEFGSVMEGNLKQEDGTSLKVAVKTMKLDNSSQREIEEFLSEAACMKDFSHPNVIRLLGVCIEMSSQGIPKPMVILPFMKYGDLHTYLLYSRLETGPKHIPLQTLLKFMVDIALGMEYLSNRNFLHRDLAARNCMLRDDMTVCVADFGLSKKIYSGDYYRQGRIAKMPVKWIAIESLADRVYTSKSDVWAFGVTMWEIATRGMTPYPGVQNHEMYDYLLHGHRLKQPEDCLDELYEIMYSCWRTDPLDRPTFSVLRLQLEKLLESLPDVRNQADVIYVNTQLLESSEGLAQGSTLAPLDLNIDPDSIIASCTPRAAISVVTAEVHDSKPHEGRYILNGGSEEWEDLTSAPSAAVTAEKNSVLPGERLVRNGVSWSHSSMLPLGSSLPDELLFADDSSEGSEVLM
Method: as §1

AXL = molecular target: T3, AXL (Homo sapiens, UniProt P30530); test: Microfluidic capillary electrophoresis (MCE) kinase activity assay, Axl; format: biochemical
T3 sequence (P30530 26-894): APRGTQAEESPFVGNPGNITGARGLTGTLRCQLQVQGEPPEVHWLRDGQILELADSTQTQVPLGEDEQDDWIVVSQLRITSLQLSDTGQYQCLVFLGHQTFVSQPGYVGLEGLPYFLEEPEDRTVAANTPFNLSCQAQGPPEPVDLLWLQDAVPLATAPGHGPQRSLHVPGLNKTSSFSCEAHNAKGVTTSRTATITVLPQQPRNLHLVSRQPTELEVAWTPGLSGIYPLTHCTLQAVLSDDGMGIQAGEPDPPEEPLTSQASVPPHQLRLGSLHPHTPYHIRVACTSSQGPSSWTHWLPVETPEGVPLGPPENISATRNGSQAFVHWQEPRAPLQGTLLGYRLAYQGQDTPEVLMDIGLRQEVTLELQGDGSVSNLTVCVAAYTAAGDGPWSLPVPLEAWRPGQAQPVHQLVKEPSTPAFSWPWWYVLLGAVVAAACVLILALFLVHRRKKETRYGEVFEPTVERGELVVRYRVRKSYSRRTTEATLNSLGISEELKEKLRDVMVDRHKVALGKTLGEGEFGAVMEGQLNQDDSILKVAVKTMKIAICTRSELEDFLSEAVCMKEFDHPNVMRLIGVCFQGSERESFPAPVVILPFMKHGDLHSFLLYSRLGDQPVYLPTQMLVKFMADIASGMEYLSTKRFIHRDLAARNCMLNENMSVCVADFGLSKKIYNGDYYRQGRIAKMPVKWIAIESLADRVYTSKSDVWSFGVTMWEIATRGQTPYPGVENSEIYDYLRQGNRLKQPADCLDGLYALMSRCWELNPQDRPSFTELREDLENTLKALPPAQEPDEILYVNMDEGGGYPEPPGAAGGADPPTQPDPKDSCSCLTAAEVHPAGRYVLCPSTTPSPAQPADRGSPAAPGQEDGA
Method: as §1

Row | Compound | IC50 (TYRO3; Table 2, MCE assay, ATP at Km) [nM] | IC50 (MERTK; Table 2, MCE assay, ATP at Km) [nM] | IC50 (AXL; Table 2, MCE assay, ATP at Km) [nM] | further results
1 | COC(=O)[C@H](c1ccccc1Cl)N1CCc2sccc2C1 [clopidogrel] |  |  |  | further increase of major bleeding risk on addition as a combination therapy ([1]; added to aspirin): 1%
2 | O[C@H]1CC[C@H](n2cc(-c3ccc(CN4CCNCC4)cc3)c3cnc(Nc4cc(C(F)(F)F)cc(C(F)(F)F)c4)nc32)CC1 [Compound 27] | < 10 | 100 to 1000 | 100 to 1000 | 
3 | CN1CCC(Oc2ccc(-c3cn([C@H]4CC[C@H](O)CC4)c4nc(Nc5cc(C(F)(F)F)cc(C(F)(F)F)c5)ncc34)cc2)CC1 [Compound 150, trans-4-(2-((3,5-bis(trifluoromethyl)phenyl)amino)-5-(4-((1-methylpiperidin-4-yl)oxy)phenyl)-7H-pyrrolo[2,3-d]pyrimidin-7-yl)cyclohexan-1-ol] |  |  |  | IC50 (TYRO3; Table 7): 10 to 100 nM; IC50 (MERTK; Table 7): 1000 to 30000 nM; IC50 (AXL; Table 7): 1000 to 30000 nM
4 | CC(C)(C)OC(=O)N1CCN(Cc2ccc(-c3cn([C@H]4CC[C@H](O)CC4)c4nc(Nc5cc(F)cc(Cl)c5)ncc34)cc2)CC1 [Compound 28] | < 10 | 100 to 1000 | 100 to 1000 | 
5 | O[C@H]1CC[C@H](n2cc(-c3ccc(CN4CCN(C5CCCC5)CC4)cc3)c3cnc(Nc4cc(F)cc(Cl)c4)nc32)CC1 [Compound 31] | < 10 | < 10 | 10 to 100 | 
6 | CN1CCN(Cc2ccc(-c3cn([C@H]4CC[C@H](O)CC4)c4nc(Nc5cncnc5)ncc34)cc2)CC1 [Compound 66] | < 10 | < 10 | < 10 | 
7 | O[C@H]1CC[C@H](n2cc(-c3ccc(CN4CCSCC4)cc3)c3cnc(Nc4cc(F)cc(Cl)c4)nc32)CC1 [Compound 25] | < 10 | 100 to 1000 | 100 to 1000 | 
8 | O[C@H]1CC[C@H](n2cc(-c3ccc(CN4CCNCC4)cc3)c3cnc(Nc4cc(F)cc(Cl)c4)nc32)CC1 [Compound 29] | < 10 | < 10 | 10 to 100 | 
9 | CC(=O)Oc1ccccc1C(=O)O [aspirin] |  |  |  | baseline major bleeding risk (gastrointestinal or intracranial) ([1]; in vivo): 1-4%
10 | CN1CCC(Oc2ccc(-c3cn([C@H]4CC[C@H](O)CC4)c4nc(Nc5cc(F)cc(Cl)c5)ncc34)cc2)CC1 [Compound 60] |  |  |  | IC50 (TYRO3; Table 7): < 10 nM; IC50 (MERTK; Table 7): < 10 nM; IC50 (AXL; Table 7): 10 to 100 nM
11 | CN1CCC(Oc2ccc(-c3cn([C@H]4CC[C@H](O)CC4)c4nc(Nc5cc(F)cc(Cl)c5)ncc34)cc2)CC1 [Compound 37] | < 10 | < 10 | 10 to 100 | 
12 | CN1CCN(Cc2ccc(-c3cn([C@H]4CC[C@@H](O)CC4)c4nc(Nc5cc(F)cc(Cl)c5)ncc34)cc2)CC1 [Compound 39] |  |  |  | IC50 (TYRO3; Table 3, MCE assay, ATP at Km): < 10 nM; IC50 (MERTK; Table 3, MCE assay, ATP at Km): < 10 nM; IC50 (AXL; Table 3, MCE assay, ATP at Km): 10 to 100 nM
